The values that follow come from PMC11906762, “Toward a high-throughput in vitro model for estimating vitreous humor permeability of topically applied drugs” (Scientific Reports, 2025).

A short description of data set [1]: PAMPA with HA-855 + agar (HA 0.07 w/v%; agar 0.095 w/v%) as acceptor medium. Conditions: for permeability decrease with HA-855 + agar compared with agar alone: cationic compounds, acceptor HA-855 + agar vs agar. As for the experimental part: Finally, the solutions were stored at room temperature overnight.
(§1) For each assay 3 replicates per compounds were measured.
In their study three types of HA-agar hydrogels were investigated with various HA and agar content from rheological and particle migration aspects. Hyaluronate as a viscoelastic polymer is an essential part of the model (as a native component of the VH itself) while agar is used to achieve elasticity and so to mimic the properties of the naturally occurring collagen fibrils. As a result of their study, they found the hydrogel containing 0.7 mg/ml (0.07 w/v%) HA (high molecular weight) and 0.95 mg/ml (0.095 w/v%) agar to be the most similar to bovine VH in the above-mentioned experiments. Since they conducted no permeability measurements with this promising hydrogel, we tested it as an acceptor medium in the PAMPA measurements. To gain further insight, experiments using only agar-containing acceptor phase were also carried out, since the standalone effect of the high molecular weight Na-HA was already investigated.

A short description of data set [2]: PAMPA with freshly excised porcine vitreous humor as acceptor medium. The format is in vitro ADME. As to conditions: 250 µM API in PBS; UV detection; also after precipitation and filtering. As for the experimental part:
as §1
There has been an attempt made to use freshly excised porcine vitreous as acceptor medium in the experiments, for three APIs with sufficient absorption at a wavelength closer to the visible range (~ 300 nm) considering the cut-off of VH. […] When preparing the equilibrium solutions, one unit of API solution (250 µM, PBS) was mixed with (approximately) two units of VH. […] To gain clear spectra by removing background components, precipitation was attempted using cold acetonitrile, centrifugation, and filtration. […] The sample preparation process of VH containing samples was not further improved or investigated in this study.

The nature of data set [3]: Modified corneal-PAMPA, PBS as acceptor medium, UV-vis plate reader. It is filed as in vitro ADME. As to conditions: general trend regardless of the acceptor medium.
A short description of data set [4]: Solubility in PBS buffer (pH 7.4) for PAMPA donor solutions. The format is physicochemical. Conditions: PBS pH 7.4; used at 100 µM instead of 250 µM nominal concentration.
The nature of data set [5]: PAMPA with HA-200 (0.1 w/v%) as acceptor medium. Conditions: HA (HA-200, HA-855; 0.1 w/v%) as acceptor-phase component; very low permeability and interference of HA with absorbance signal.

Counter-ions that a name gives are not always drawn.

In the case of `CCCCOc1cc(C(=O)OCCN(CC)CC)ccc1N` [oxybuprocaine HCl, oxybuprocaine hydrochloride], in data set [1], the “permeability decrease with HA-855 + agar compared with agar alone” value (shortened to “permeability decrease with HA-855 + agar”) is “decrease the permeability in a greater extent than agar alone”.

As to `CCN(CC)CCCC(C)Nc1ccnc2cc(Cl)ccc12` (centres unmarked) [chloroquine diphosphate], in data set [1], the “permeability decrease with HA-855 + agar” value is reported as “decrease the permeability in a greater extent than agar alone”.

Regarding `COc1c(N2C[C@@H]3CCCN[C@@H]3C2)c(F)cc2c(=O)c(C(=O)O)cn(C3CC3)c12` [moxifloxacin, moxifloxacin hydrochloride], the “detection of API in porcine vitreous humor acceptor medium” value in data set [2] is recorded as “no API could be detected”. Also, the “permeability (qualitative)” value in data set [3] was “low permeability”.

In the case of `O=C(O)Cc1ccccc1Nc1c(Cl)cccc1Cl` [diclofenac Na], in data set [1] (acceptor HA-855 + agar), the “direction of permeability change against corneal-PAMPA (PBS)” value was “significant increase”.

Take `CC(C)(C)NC[C@H](O)COc1nsnc1N1CCOCC1` [timolol, timolol maleate]: the “permeability decrease with HA-855 + agar” value in data set [1] is “decrease the permeability in a greater extent than agar alone”.

Regarding `NC(=O)N1c2ccccc2C=Cc2ccccc21` [carbamazepine], in data set [4], the “solubility (qualitative)” value is reported as “poor solubility”.

`C[C@@H]1C[C@H]2[C@@H]3CCC4=CC(=O)C=C[C@]4(C)[C@@]3(F)[C@@H](O)C[C@]2(C)[C@@]1(O)C(=O)CO` [dexamethasone]: in data set [4], the “solubility (qualitative)” value is recorded as “poor solubility”. Moreover, the “detection in the acceptor medium” value in data set [5] is listed as “could not be detected in the acceptor medium”.

Turning to `CCCCNc1ccc(C(=O)OCCN(C)C)cc1` [tetracaine HCl, tetracaine hydrochloride], the “permeability decrease with HA-855 + agar” value in data set [1] was “decrease the permeability in a greater extent than agar alone”.

With `CNCC[C@H](Oc1cccc2ccccc12)c1cccs1` [duloxetine HCl, duloxetine hydrochloride], the “permeability decrease with HA-855 + agar” value in data set [1] is on record as “decrease the permeability in a greater extent than agar alone”.

Regarding `CCn1cc(C(=O)O)c(=O)c2cc(F)c(N3CCNCC3)nc21` [enoxacin], the “detection in the acceptor medium” value in data set [5] was “could not be detected in the acceptor medium”.

As for `CC(C)NCC(O)COc1cccc2ccccc12` (centres unmarked) [propranolol HCl, propranolol hydrochloride], the “permeability decrease with HA-855 + agar” value in data set [1] is recorded as “decrease the permeability in a greater extent than agar alone”.

`N=C(N)c1ccc(OCCCOc2ccc(C(=N)N)cc2)cc1` [propamidine]: the “detection in the acceptor medium” value in data set [5] is recorded as “could not be detected in the acceptor medium”.

On to `CNC(=C[N+](=O)[O-])NCCSCc1ccc(CN(C)C)o1` [ranitidine, ranitidine hydrochloride], for which the “detection in the acceptor medium” value in data set [5] is “could not be detected in the acceptor medium”.

With `O=C(c1ccccc1)c1ccc2n1CCC2C(=O)O` (centres unmarked) [ketorolac], the “detection of API in porcine vitreous humor acceptor medium” value in data set [2] was “no API could be detected”. The “permeability (qualitative)” value in data set [3] was “low permeability”.
